Data as given in patent EP0158545A1, “[Alpha-(alkylaminomethyl)-benzylthio]-acetic-acid derivatives, process for their preparation and their therapeutic use” (priority 1984, dated 1985).
Entries after “also recorded” stand apart in the source; their conditions may differ.

Key:
[1] = tested on: souris; settings: I.P., plus forte dose utilisée (128 mg/kg)
[2] = tested on: souris; experiment: Interaction with reserpine (hypothermia, ptosis), mouse; format: in vivo; settings: réserpine 2,5 mg/kg I.P.
Procedure: Quatre heures après l'injection intrapéritonéale de 2,5 mg/kg de réserpine, des lots de 12 souris reçoivent le CRL 41 190. On étudie l'influence du produit à tester sur l'hypothermie et le ptôsis réserpiniques.

[3] = tested on: rats; experiment: Interaction with amphetamine (stereotypies), rat; format: in vivo; settings: amphétamine 2 mg/kg I.P., doses de 4 mg/kg, 16 mg/kg et surtout 64 mg/kg
Procedure: L'amphétamine (2 mg/kg) est injectée par voie intrapéritonéale à des lots de 6 rats, une demi -heure après l'administration de CRL 41 190.

[4] = tested on: souris; experiment: Behavioural despair (forced immersion), mouse; format: in vivo; settings: I.P., doses de 32 et 128 mg/kg
Text: On note la durée totale d'immobilité entre la 2ème et la 6ème minutes suivant l'immersion.

[5] = tested on: souris; experiment: Intergroup aggressiveness, mouse; format: in vivo; settings: I.P., aux doses utilisées
Procedure: Après avoir séjourné pendant 3 semaines dans chacune des moitiés d'une cage séparées par une cloison opaque, des groupes de 3 souris reçoivent le CRL 41 190. Une demi-heure plus tard, les deux groupes d'une même cage sont réunis par retrait de la cloison et on note le nombre de combats qui surviennent en 10 minutes.

[6] = tested on: souris; experiment: Four-plate test, traction and electroshock, mouse; format: in vivo
Procedure: Le test est pratiqué sur des lots de 10 souris 0,50 h après l'administration du produit à étudier.

[7] = tested on: rat; experiment: Global behaviour and reactivities, rat; format: in vivo; settings: I.P.
Procedure: (§1) On a résumé ci-après les résultats des essais neuropsychopharmacologiques qui ont été entrepris avec les produits préférés selon l'invention, le CRL 41 190 (Ex 1) et le CRL 41 214 (Ex 3). Dans ce résumé, les deux produits à tester mis en solution dans de l'eau distillée ont été administrés, sauf indiction contraire, par voie intrapéritonéale sous un volume de 20 ml/kg chez la souris mâle et sous un volume de 5 ml/kg chez le rat mâle. […]
(§2) Des lots de trois animaux sont observés avant puis 0,25 h, 0,5, h, 1 h, 2 h, 3 h et 24 h après administration de CRL 41 190.

[8] = tested on: souris; experiment: Asphyxic anoxia (gallamine triethiodide), mouse; format: in vivo; settings: product I.P. half an hour before triiodoéthylate de gallamine 32 mg/kg I.P.
[9] = tested on: souris; experiment: Spontaneous motility (actimeter), mouse; format: in vivo; settings: souris, I.P.; plus forte dose utilisée (128 mg/gk)
[10] = tested on: souris; experiment: Global behaviour and reactivities, mouse; format: in vivo; settings: I.P.
Procedure: as §1, §2

[11] = tested on: souris; experiment: Interaction with apomorphine, mouse; format: in vivo
Procedure: • 1°) chez la souris • Des lots de 6 souris reçoivent le produit à étudier 0,50 h avant une injection sous-cutanée de 1 mg/kg ou 16 mg/kg d'apomorphine.

[12] = tested on: rat; experiment: Interaction with apomorphine, rat; format: in vivo; settings: product I.P. 0,50 h before s.c. 0,5 mg/kg apomorphine
[13] = tested on: souris; experiment: Interaction with oxotremorine, mouse; format: in vivo; settings: oxotrémorine 0,5 mg/kg I.P.
[14] = tested on: souris; experiment: Motility reduced by habituation to the enclosure, mouse; format: in vivo; settings: I.P., plus forte dose utilisée (128 mg/kg)
[15] = tested on: souris mâle; settings: in vivo
Procedure: as §1
La DL-0 (dose maximale non mortelle) du CRL 41 190 est supérieure à 128 mg/kg par voie I.P. chez la souris mâle, et la DL-30 est de l'ordre de 256 mg/kg.
Par voie I.P. chez la souris mâle, la DL-0 est supérieure à 256 mg/kg.

[16] = tested on: souris; experiment: Interaction with barbital (sleep duration), mouse; format: in vivo; settings: barbital 220 mg/kg I.P., plus forte dose utilisée (128 mg/kg)
[17] = tested on: l'homme; experiment: Clinical treatment of depression, oral administration; format: in vivo
[18] = tested on: chiens; experiment: Influence on noradrenaline hypertension, dog; format: in vivo; settings: chien
Procedure: (§3) b) Sur les mêmes chiens on a étudié l'influence du produit vis à vis de l'isoprénaline et de la noradrénaline.
L'hyptertension à la noradrénaline (2 µg/kg I.V.) est augmentée par le CRL 41 252 ([…]), la pression artérielle systolique passe de 208 à 352 mmHg (soit environ de 2,77 x 10^4 à 4,7 x 10^4Pa) au lieu de 204 à 328 mmHg (soit environ de 2,71 à 4,3 x 10 Pa).

[19] = tested on: chiens; experiment: Influence on isoprenaline effects, dog; format: in vivo; settings: chien, isoprénaline 10 µg/kg I.V., dose cumulée de 19,1 mg/kg I.D.
[20] = tested on: système nerveux central (SNC); experiment: General statement of CNS (antidepressant, sedative) properties; format: in vivo
[21] = tested on: chiens; experiment: Cardiovascular tests in dogs, intraduodenal successive doses; format: in vivo, chien
Procedure: a) Quatre chiens (poids moyen : 13,8 kg) anesthésiés au nembutal reçoivent le CRL 41 250 par voie intraduodénale, aux doses successives de 0,1 mg/kg, 0,5 mg/kg, 1 mg/kg, 2,5 mg/kg, 5 mg/kg puis 10 mg/kg. On mesure la pression artérielle, la fréquence cardiaque, le débit artériel fémoral, le débit artériel vertébral, la température rectale et on observe la coloration de la peau.
a) Deux chiens (poids moyen : 14,5 kg) reçoivent le CRL 41 252 par voie intraduodénale, aux doses successives de 0,1 mg/kg, 0,5 mg/kg, 1 mg/kg, 2,5 mg/kg, 5 mg/kg, 10 mg/kg et 20 mg/kg. On mesure la pression artérielle, la fréquence cardiaque, le débit artériel fémoral, le débit artériel vertébral, les températures rectale et cutanée et on observe la coloration de la peau.

[22] = tested on: chiens; experiment: Influence on isoprenaline effects, dog; format: in vivo; settings: chien, after dose cumulée 19,1 mg/kg I.D.
Text: as §3
Avec 10,pg/kg I.V. d'isoprénaline la pression artérielle diastolique du CRL 41 252 passe de 128 à […] ([…] à 6,4 x 10^3 Pa), […]

[23] = dès la dose de 8 mg/kg, mais surtout aux doses de 32 mg/kg et 128 mg/kg
[24] = souris, 0,50 h after I.P. administration

CC(C)(C)NCC(SCC(=O)NO)c1ccccc1 (racemic) [CRL 41 214, chlorhydratede l'acide [α-(tertiobutyl-aminométhyl)-benzyl]-thioacétohydroxamique]
récupération motrice après anoxie hypobare aigue [1]: semble entraîner une amélioration très modérée de la récupération motrice | ptôsis réserpinique ([2]; doses 8 to 128 mg/kg): sans modifier le ptôsis | hypothermie réserpinique [2, 23]: antagonise l'hypothermie réserpinique | stéréotypies amphétaminiques [3]: potentialise nettement les stéréotypies amphétaminiques | durée de l'immobilité de la souris placée en immersion forcée [4]: diminue très modérément la durée de l'immobilité de la souris placée en immersion forcée | nombre de combats [5]: ne modifie pratiquement pas le nombre de combats | effets convulsivants de l'électrochoc [6, 24]: ne modifie pratiquement pas les effets convulsivants | incapacité motrice (traction) [6, 24]: ne provoque pas d'incapacité motrice majeure | nombre de passages punis (test des quatre plaques) [6, 24]: n'entraîne pas d'augmentation nette du nombre de passages punis | effets létaux de l'électrochoc ([6]; souris, I.P., dose de 128 mg/kg): aggrave, à la dose de 128 mg/kg, les effets létaux de l'électrochoc | comportement global et réactivités ([7]; dose de 16 mg/kg): une mydriase d'une durée de 2 h qui est maximale 0,5 h après administration | comportement global et réactivités ([7]; dose de 64 mg/kg): une diminution de la fréquence respiratoire pendant 0,5 h et une mydriase d'une durée de 3 h qui est maximale 1 h après administration | comportement global et réactivités ([7]; doses de 1 et 4 mg/kg): aucune modification nette du comportement, des réactivités, de la température rectale et du diamètre pupillaire par rapport au lot témoin | délai d'apparition des convulsions et de la mort consécutives à une anoxie asphyxique [8]: diminue très modérément le délai d'apparition des convulsions et de la mort | activité motrice spontanée [9]: augmente nettement l'activité motrice spontanée de la souris | comportement global et réactivités ([10]; dose de 128 mg/kg): une mydriase modérée | comportement global et réactivités ([10]; doses de 2 à 32 mg/kg): aucune modification nette du comportement et des réactivités | hypothermie induite par l'apomorphine ([11]; I.P., dès la dose de 2 mg/kg, mais surtout aux doses de 32 mg/kg à 128 mg/kg): antagonise l'hypothermie induite par l'apomorphine | comportements de verticalisation et stéréotypies (apomorphine) ([11]; product I.P. 0,50 h before s.c. apomorphine): ne sont pratiquement pas modifiés | stéréotypies induites par l'apomorphine [12]: laisse inchangées les stéréotypies induites par l'apomorphine | signes de stimulation cholinergique périphérique dûs à l'oxotrémorine ([13]; all doses used): ne modifie pratiquement pas les signes de stimulation cholinergique périphérique dûs à l'oxotrémorine | intensité des tremblements dus à l'oxotrémorine ([13]; doses de 32 mg/kg et 128 mg/kg): diminue faiblement l'intensité des tremblements dus à l'oxotrémorine | hypothermie induite par l'oxotrémorine [13, 23]: s'oppose à l'hypothermie induite par l'oxotrémorine | reprise d'activité motrice chez la souris habituée à son enceinte [14]: entraîne une reprise nette d'activité motrice chez la souris habituée à son enceinte | signs observed at high doses [15]: une sédation et une dyspnée | DL-0 (dose maximale non mortelle) ([15]; mouse, ip): > 256 mg/kg | durée du sommeil barbiturique [16]: diminue nettement la durée du sommeil barbiturique | traitement des dépressions chez l'homme ([17]; administration orale, gélules ou comprimés 25 mg ou 50 mg, 1 à 2 prises par jour, deux à trois semaines): bons résultats | propriétés antidépressives chez les personnes agées ([17]; clinical, oral): se manifestaient de façon très bénéfique chez les personnes agées

CC(SC(CNC(C)(C)C)c1ccccc1)C(N)=O (stereo not drawn) [CRL 41 250, fumaratede 2-{[α-(tertiobutylaminomethyl)-benzyl]-thio}-propionamide]
pression artérielle systolique, before noradrénaline ([18]; after dose cumulée 19,1 mg/kg I.D., control 204): 191 mmHg | pression artérielle systolique, after noradrénaline ([18]; noradrénaline 2 µg/kg I.V., after dose cumulée 19,1 mg/kg I.D., control 304): 330 mmHg | hypertension à la noradrénaline ([18]; noradrénaline 2 µg/kg I.V., dose cumulée de 19,1 mg/kg I.D.): légèrement augmentée | effect on isoprénaline response (pression artérielle diastolique, fréquence cardiaque) [19]: ne modifie pas la pression artérielle diastolique ni la fréquence cardiaque | propriétés antidépressives et sédatives [20]: propriétés antidépressives et sédatives | débit fémoral ([21]; chien anesthésié (nembutal), dose de 19,1 mg/kg I.D.): augmente le débit fémoral | fréquence cardiaque ([21]; chien anesthésié, dose de 1 mg/kg I.D.): provoque une légère bradycardie | pression artérielle ([21]; chien anesthésié, successive I.D. doses 0,1 to 10 mg/kg): aucun effet sur la pression artérielle | effets vasodilatateurs (propriétés cardiovasculaires) ([21]; general statement): effets vasodilatateurs intéressants; also recorded: effets vasodilatateurs bénéfiques | pression artérielle diastolique, before isoprénaline ([22]; control 151): 148 mmHg | fréquence cardiaque, before isoprénaline ([22]; control 180): 175 battements/minute | pression artérielle diastolique, after isoprénaline ([22]; isoprénaline 10 µg/kg I.V., control 43): 47 mmHg | fréquence cardiaque, after isoprénaline ([22]; isoprénaline 10 µg/kg I.V., control 271): 265 battements/minute
